Eight compounds from US8119660B2, “Small-molecule inhibitors of the androgen receptor” (The Regents of the University of California, priority 2007, dated 2012) can be followed below.

One assay deals with prostate glands of mice. Kind of assay: Prostate weight in treated male mice. It counts as in vivo. The conditions noted are these: 5 times per week for four weeks, BiC 100 mg/kg PO, PP 1 mg/kg IP, or the combination. On the procedure: FIG. 7. […] As a positive control, nine mice were treated with castration for four weeks. Prostate glands were harvested and wet weights determined. […] Error bars represent the standard error of the mean (S.E.M.).
Animals were treated 5 times per week for four weeks. At the end of the study period, animals were sacrificed and prostate tissue weighed. After weighing, the tissue was divided in half for pathological and genetic studies. […] (FIG. 7).

The subject of assay [1] is endogenous AR-regulated gene expression, LNCaP cells. Kind of assay: qRT-PCR of androgen-responsive genes in LNCaP cells. The class given is cell-based, human. The conditions noted are these: No DHT = 1, 3 nM DHT alone or with 1 uM BIC, 100 nM PP or 100 nM HH. On the procedure:
(§1) LAPC4 and LNCaP cells were grown in the presence or absence of 3 nM DHT in charcoal-stripped media, with or without the inhibitors. RNA was harvested using an RNAeasy kit (Qiagen) and reverse transcribed (MMLV-RT, Invitrogen). Real-time PCR was carried out on a 7300 Real Time PCR System (Applied Biosystems) using SYBR green as the detecting dye and Rox as the reference dye. The androgen responsive genes kalikrein 3, or PSA (KLK3) [Cleutjens, K. B., et al., Two androgen response regions cooperate in steroid hormone regulated activity of the prostate-specific antigen promoter. J Biol Chem, 1996. 271(11): p. 6379-88; Nelson, P. S., et al., The program of androgen-responsive genes in neoplastic prostate epithelium. Proc Natl Acad Sci USA, 2002. 99(18): p. 11890-5), metalloproteinase 16 (MMP16) (Nelson, P. S., et al., The program of androgen-responsive genes in neoplastic prostate epithelium. Proc Natl Acad Sci USA, 2002. 99(18): p. 11890-5), transmembrane protease serine 2 (TMPRSS2) (Nelson, P. S., et al., The program of androgen-responsive genes in neoplastic prostate epithelium. Proc Natl Acad Sci USA, 2002. 99(18): p. 11890-5; […] Vaarala, M. H., et al., Expression of transmembrane serine protease TMPRSS2 in mouse and human tissues. J Pathol, 2001. 193(1): p. 134-40), FK506-binding immunophilin 51 (FKBP51) (Nelson, P. S., et al., The program of androgen-responsive genes in neoplastic prostate epithelium. Proc Natl Acad Sci USA, 2002. 99(18): p. 11890-5; Amler, L. C., et al., Dysregulated expression of androgen-responsive and nonresponsive genes in the androgen-independent prostate cancer xenograft model CWR22-R1. Cancer Res, 2000. 60(21): p. 6134-41; Velasco, A. M., et al., Identification and validation of novel androgen-regulated genes in prostate cancer. Endocrinology, 2004. 145(8): p. 3913-24; Magee, J. A., et al., Direct, androgen receptor-mediated regulation of the FKBP5 gene via a distal enhancer element. Endocrinology, 2006. 147(1): p. 590-8), G-protein coupled receptor RDC1 homolog, or chemokine orphan receptor 1 (RDC-1) (Nelson, P. S., et al., The program of androgen-responsive genes in neoplastic prostate epithelium. Proc Natl Acad Sci USA, 2002. 99(18): p. 11890-5), NK homeobox family member 3 (Nk×3.1) (Nelson, P. S., et al., The program of androgen-responsive genes in neoplastic prostate epithelium. Proc Natl Acad Sci USA, 2002. 99(18): p. 11890-5; Bieberich, C. J., et al., Prostate-specific and androgen-dependent expression of a novel homeobox gene. J Biol Chem, 1996. 271(50): p. 31779-82; […]) were all normalized to the transcription of the housekeeping ribosomal gene (RPL19). All samples were done in triplicate and separately normalized.
(In general: Quantitative PCR measures a nucleic acid by following its amplification.)

For assay [2], the system named is endogenous AR-regulated gene expression, LAPC4 cells. The assay is described as follows: qRT-PCR of androgen-responsive genes in LAPC4 cells. The class given is cell-based, human. The conditions noted are these: No DHT = 1, 3 nM DHT alone or with 1 uM BIC, 100 nM PP or 100 nM HH. The method, then: as §1
The target of assay [3] is T1, endogenous AR with a mutation (T877A), LNCaP cells (Homo sapiens, UniProt P10275, T878A).
T1 construct: that each express endogenous AR; endogenous in cells; host or cells: LNCaP
T1 sequence (P10275 1-920 T878A): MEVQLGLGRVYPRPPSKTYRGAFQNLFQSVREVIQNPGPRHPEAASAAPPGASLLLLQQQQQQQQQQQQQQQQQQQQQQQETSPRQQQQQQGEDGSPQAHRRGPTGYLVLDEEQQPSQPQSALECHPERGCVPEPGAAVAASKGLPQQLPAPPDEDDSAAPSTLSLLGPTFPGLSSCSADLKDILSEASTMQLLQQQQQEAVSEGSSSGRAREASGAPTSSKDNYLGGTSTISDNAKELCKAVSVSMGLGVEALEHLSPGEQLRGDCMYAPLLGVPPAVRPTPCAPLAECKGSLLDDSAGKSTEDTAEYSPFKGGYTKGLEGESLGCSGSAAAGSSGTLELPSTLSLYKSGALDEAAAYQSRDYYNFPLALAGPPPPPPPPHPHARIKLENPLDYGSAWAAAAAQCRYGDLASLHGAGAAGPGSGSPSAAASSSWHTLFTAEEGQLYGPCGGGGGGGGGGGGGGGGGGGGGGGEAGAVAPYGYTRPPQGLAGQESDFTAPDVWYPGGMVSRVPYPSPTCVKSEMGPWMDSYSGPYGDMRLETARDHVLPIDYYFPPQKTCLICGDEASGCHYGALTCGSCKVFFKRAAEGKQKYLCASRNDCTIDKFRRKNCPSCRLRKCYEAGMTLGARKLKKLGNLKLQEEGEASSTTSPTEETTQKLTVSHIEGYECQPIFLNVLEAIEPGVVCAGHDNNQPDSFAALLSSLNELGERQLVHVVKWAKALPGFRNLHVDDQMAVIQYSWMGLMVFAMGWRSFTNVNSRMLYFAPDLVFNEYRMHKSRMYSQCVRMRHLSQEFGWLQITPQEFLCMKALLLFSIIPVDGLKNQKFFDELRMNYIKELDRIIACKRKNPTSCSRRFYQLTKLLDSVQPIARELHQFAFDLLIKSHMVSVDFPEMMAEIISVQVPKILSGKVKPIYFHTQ
Kind of assay: PSA-luciferase reporter assay in LNCaP cells with DHT. The class given is cell-based. The conditions noted are these: for IC50: LNCaP cells, 3 nM DHT. On the procedure: (§2) Cells were transfected with two reporter plasmids, a PSA-luciferase construct (androgen responsive), and an SV40-renilla luciferase construct as an internal control. The following day, the cells were split and drugs added in the presence of 3 nM DHT. Luciferase production was measured the following day (Dual luciferase assay kit, Promega).
(§3) Synergism can be defined as a combination index of less than one, using the non-exclusive assumption described by Chou et al. (Chou, T. C. and P. Talalay, Quantitative analysis of dose-effect relationships: the combined effects of multiple drugs or enzyme inhibitors. Adv Enzyme Regul, 1984. 22: p. 27-55).

In assay [4] the target is T2, endogenous wild-type AR, LAPC4 cells (Homo sapiens, UniProt P10275).
T2 construct: that each express endogenous AR; endogenous in cells; host or cells: LAPC4
T2 sequence (P10275 1-920): T1 sequence (P10275 1-920 T878A) with A878T
Kind of assay: PSA-luciferase reporter assay in LAPC4 cells with DHT. The class given is cell-based. The conditions noted are these: 3 nM DHT. On the procedure: as §2, §3
On the technique in general: Reporter assays use an easily measured gene product as a stand-in for the process of interest.

Residue numbers refer to the chain shown, from its start. Entries after “also recorded” stand apart in the source; their conditions may differ.

Take `CC(O)(CS(=O)(=O)c1ccc(F)cc1)C(=O)Nc1ccc(C#N)c(C(F)(F)F)c1` (stereo not shown) [BiC, bicalutamide]: in the assay with prostate glands of mice, the “Reduction of prostate weight” value amounted to 35%.

In the case of `C[C@]12CCC(=O)C[C@@H]1CC[C@@H]1[C@@H]2CC[C@]2(C)[C@@H](O)CC[C@@H]12` [DHT, dihydrotestosterone], in assay [1], the “FKBP51 transcription (normalized to RPL19)” value worked out at 2.15; the “KLK3 transcription (normalized to RPL19)” value stood at 1.89; the “MMP16 transcription (normalized to RPL19), androgen-repressed gene” value stood at 0.61; the “Nkx3.1 transcription (normalized to RPL19)” value was 2.00. In assay [1], the “RDC1 transcription (normalized to RPL19), androgen-repressed gene” value was found to be 0.66 and the “TMPRSS2 transcription (normalized to RPL19)” value came out at 3.70. In assay [2], the “FKBP51 transcription (normalized to RPL19)” value is reported as 21.4; the “KLK3 transcription (normalized to RPL19)” value is 1.97; the “MMP16 transcription (normalized to RPL19), androgen-repressed gene” value worked out at 0.71; the “Nkx3.1 transcription (normalized to RPL19)” value is recorded as 1.08. Also, in assay [2], the “RDC1 transcription (normalized to RPL19), androgen-repressed gene” value was determined as 0.63 and the “TMPRSS2 transcription (normalized to RPL19)” value was 1.13.

`O=c1ccc2cc(O[C@@H]3O[C@H](CO)[C@@H](O)[C@H](O)[C@H]3O)c(O)cc2o1` [Esculin]: the figures for the 50% inhibitory concentration (IC50) in assay [3] and in assay [4] were 62200 nM and 831 nM, respectively.

Turning to `COc1ccc2c3c([nH]c2c1)C(C)=NCC3` [Harmaline], the IC50 in assay [3] turned out to be 1190 nM.

Regarding `COc1ccc2c(c1)[nH]c1c(C)nccc12` [Harmine], the values for the IC50 in assay [3] and in assay [4] were 1560 nM and 80 nM, respectively.

As for `CC(C)(O)C(=O)Nc1ccc([N+](=O)[O-])c(C(F)(F)F)c1` [OH-F, hydroxy-flutamide, reference compound], the “Mode of antagonism: effect on DHT dose-response of PSA-luciferase” value in assay [3] (LNCaP, DHT titrated, moderate dose of each inhibitor) is “DHT overcame the inhibitory effect; also recorded: consistent with a competitive antagonist”.

For `COc1cc2ccc(=O)oc2cc1O` [Scopoletin], the IC50 in assay [3] amounted to 604000 nM; in assay [4], 1380 nM.

On to Harman, for which, in assay [3], the IC50 worked out at 380 nM.

One may read the IC50 as the concentration at which inhibition is half-maximal.
